According to US6472408B1, “Dimeric compounds” (priority 2000, dated 2002):
Structures can show the parent of a compound that is named as a salt. Where two headings read alike, the source gives them in different places.

Assays:
[1] = biological target: T1, AChE (Rattus norvegicus, UniProt P37136); assay: biochemical; conditions: for Selectivity for AChE: IC50(BChE)/IC50(AChE)
T1 construct: Frontal cortex (brain dissected on ice) was homogenized in sodium phosphate buffer; from tissue; host or cells: rat frontal cortex homogenate
T1 sequence (P37136 32-614): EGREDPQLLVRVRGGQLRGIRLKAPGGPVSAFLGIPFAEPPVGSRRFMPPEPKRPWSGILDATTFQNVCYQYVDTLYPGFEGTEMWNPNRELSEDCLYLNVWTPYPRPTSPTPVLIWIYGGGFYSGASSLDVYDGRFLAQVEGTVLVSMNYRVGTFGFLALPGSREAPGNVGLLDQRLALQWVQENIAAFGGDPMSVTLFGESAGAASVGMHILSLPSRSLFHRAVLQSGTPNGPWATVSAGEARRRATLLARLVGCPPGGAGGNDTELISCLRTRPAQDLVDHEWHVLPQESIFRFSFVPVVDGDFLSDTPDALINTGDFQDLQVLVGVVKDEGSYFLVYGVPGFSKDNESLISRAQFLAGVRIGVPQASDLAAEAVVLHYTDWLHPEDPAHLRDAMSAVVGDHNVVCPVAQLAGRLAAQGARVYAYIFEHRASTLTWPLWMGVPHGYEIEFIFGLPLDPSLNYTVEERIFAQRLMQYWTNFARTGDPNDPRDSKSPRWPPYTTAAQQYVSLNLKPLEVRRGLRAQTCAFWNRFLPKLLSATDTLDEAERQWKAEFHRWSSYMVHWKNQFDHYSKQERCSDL
Method: (§1) Rat serum was obtained by centrifugation of blood (3500×g, 10 min.). The cholinesterase assays were performed using the cloroimetric method of Ellman, with minor modification. […] A mixture of 4 mL containing acetylthiocholine iodide (0.3 mM) or butrylthiocholine iodide (0.4 mM), I mL sodium phosphate buffer ([…], pH 7.4), a solution of the compound being tested (0.1 mL), and homogenate or serum (0.1 mL) was incubated at 37° C. for 8 minutes. The reaction was terminated by the addition of sodium dodecyl sulfate (3% w/v, 1 mL), after which the 5,5′-dithiobis-(2-nitrobenzoic acid) indicator (0.2% w/v, 1 mL) was added. Enzyme activity was determined by measuring the absorbance at 420 nm after 10 minutes, relative to the drug-free control.

[2] = biological target: T2, BChE (Rattus norvegicus, UniProt Q9JKC1); assay: biochemical; conditions: for IC50: rat serum
T2 construct: Rat serum was obtained by centrifugation of blood; from tissue; host or cells: rat serum
Method: as §1, with “AChE and BChE enzyme preparations were prepared from cortex and serum respectively of decapitated rats. Frontal cortex (brain dissected on ice) was homogenized in sodium phosphate buffer (39 vol. 75 mM, pH 7.4). Rat” for “Rat”

[3] = Table III, rat cornea homogenate, in the presence of ethopropazine, drugs 13 assayed as hydrochloride salts, read-out: AChE IC50
[4] = Table III, in the presence of BW284c51, drugs 13 assayed as hydrochloride salts
[5] = Table II, rat cortex homogenate, in the presence of ethopropazine as a specific BChE inhibitor, drugs assayed as hydrochloride or fumaric acid salts, read-out: AchE IC50
[6] = Table II, in the presence of BW284c51 as a specific AChE inhibitor, drugs assayed as salts
[7] = at 0.5 mM, the highest drug concentration tested

T2 sequence (Q9JKC1 24-597): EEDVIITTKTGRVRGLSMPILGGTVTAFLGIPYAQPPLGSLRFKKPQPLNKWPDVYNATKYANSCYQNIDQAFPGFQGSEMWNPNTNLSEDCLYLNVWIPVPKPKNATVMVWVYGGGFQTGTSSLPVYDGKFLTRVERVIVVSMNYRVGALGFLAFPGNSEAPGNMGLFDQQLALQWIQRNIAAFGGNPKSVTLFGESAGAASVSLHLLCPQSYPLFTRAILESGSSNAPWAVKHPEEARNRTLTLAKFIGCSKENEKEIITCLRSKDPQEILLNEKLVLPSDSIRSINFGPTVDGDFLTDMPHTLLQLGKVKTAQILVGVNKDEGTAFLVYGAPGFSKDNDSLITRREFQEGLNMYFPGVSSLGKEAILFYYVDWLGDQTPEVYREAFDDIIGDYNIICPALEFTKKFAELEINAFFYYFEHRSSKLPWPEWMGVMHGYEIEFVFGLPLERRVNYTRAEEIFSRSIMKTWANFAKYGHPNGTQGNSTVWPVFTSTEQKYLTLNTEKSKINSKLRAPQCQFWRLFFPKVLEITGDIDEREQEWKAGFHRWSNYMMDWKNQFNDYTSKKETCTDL

| Structure (SMILES) | Selectivity for AChE ([1]; Table II) | IC50 [1, 5] | IC50 [2, 6] | also measured |
| --- | --- | --- | --- | --- |
| O=c1ccc2c([nH]1)CCC[C@@H]2NCCCCCCCCCCCCCN[C@H]1CCCc2[nH]c(=O)ccc21 [(S,S)-(−)-13j] | – | – | – | Selectivity for AChE ([1]; Table III): 321; IC50 [1, 3]: 0.052 ± 0.009 µM; IC50 [2, 4]: 16.7 µM |
| CC1(C)Cc2[nH]c(=O)ccc2C(NCCCCCCCCCNC2CC(C)(C)Cc3[nH]c(=O)ccc32)C1 (racemic) [rac-lmeso-14f] | 8.8 | 11.8 µM | 104 µM | – |
| O=c1ccc2c([nH]1)CCCC2NCCCCCCNC1CCCc2[nH]c(=O)ccc21 (racemic) [rac-lmeso-13c] | 26.3 | 3.76 µM | 98.8 µM | – |
| O=c1ccc2c([nH]1)CCCC2NCCCCCCCCNC1CCCc2[nH]c(=O)ccc21 (racemic) [rac-lmeso-13e] | 8.7 | 1.17 µM | 10.2 µM | – |
| CC1(C)Cc2[nH]c(=O)ccc2C(NCCCCCCCNC2CC(C)(C)Cc3[nH]c(=O)ccc32)C1 (racemic) [rac-lmeso-14d, rac-/meso-N,N′-Di-5′-(7′,7′-Dimethyl-5′,6′,7′,8′-tetrahydroquinolin-2-onyl)-1,7-diaminoheptane, bis-Fumaric Acid Salt] | 10 | 18.3 µM | 190 µM | – |
| O=c1ccc2c([nH]1)CCC[C@@H]2NCCCCCCCCCCN[C@H]1CCCc2[nH]c(=O)ccc21 [(S,S)-(−)-13g] | – | – | – | IC50 [2, 4]: 1.82 µM |
| COc1ccc2c(n1)CCCC2NCCCCCCCCCCNC1CCCc2nc(OC)ccc21 (racemic) [rac-lmeso-17g, rac-/meso-N,N′-di-5′-(5′,6′,7′,8′-Tetrahydro-2′-methoxy-quinolinyl)-1,10-diaminodecane, bis-Fumaric Acid] | 7.6 | 4.53 µM | 34.6 µM | – |
| O=c1ccc2c([nH]1)CCCC2NCCCCCNC1CCCc2[nH]c(=O)ccc21 (racemic) [rac-lmeso-13b] | 9.1 | 10.5 µM | – | – |
| O=c1ccc2c([nH]1)CCCC2NCCCCNC1CCCc2[nH]c(=O)ccc21 (racemic) [rac-lmeso-13a] | 2.7 | 42.3 µM | 115 µM | – |
| O=c1ccc2c([nH]1)CCCC2NCCCCCCCCCNC1CCCc2[nH]c(=O)ccc21 (racemic) [rac-lmeso-13f] | 30.3 | 0.356 ± 0.007 µM | – | – |
| O=c1ccc2c([nH]1)CCCC2NCCCCCCCCCCNC1CCCc2[nH]c(=O)ccc21 (racemic) [rac-lmeso-13g] | – | – | 5.45 µM | – |
| CCCCNC1CCCc2[nH]c(=O)ccc21 (racemic) [(±)-16, 5-n-Butylamino-5,6,7,8-tetrahydroquinolinone, bis-Hydrochloride, reference compound] | ·1 | – | ~500 µM | IC50 [1]: ~500 µM; inhibition at 500 µM [1, 7]: ~50%; inhibition at 500 µM [2, 7]: ~50% |
| Cn1c2c(ccc1=O)C(NCCCCCCCCCCNC1CCCc3c1ccc(=O)n3C)CCC2 (racemic) [rac-lmeso-15g, rac/meso-N,N′-di-5′-(5′,6′,7′,8′-Tetrahydro-1′-methyl-quinolinolyl)-1,10-diaminodecane, bis-Fumaric Acid] | 180 | 0.438 ± 0.029 µM | – | – |
| CC1(C)Cc2[nH]c(=O)ccc2C(NCCCCCCCCCCNC2CC(C)(C)Cc3[nH]c(=O)ccc32)C1 (racemic) [rac-lmeso-14g] | 17 | 6.11 µM | – | – |
| O=c1ccc2c([nH]1)CCCC2NCCCCCCCCCCCCNC1CCCc2[nH]c(=O)ccc21 (racemic) [rac-lmeso-13i] | – | – | 24.4 µM | – |
| CC1(NCCCCCCCCCCNC2(C)CCCc3[nH]c(=O)ccc32)CCCc2[nH]c(=O)ccc21 (racemic) [rac-lmeso-19g, rac-/meso-N,N′-di-5′-(5′,6′,7′,8′-Tetrahydro-5′-methylquinolinonyl)-1,10-diaminodecane, Fumaric Acid Salt] | 6.6 | 1.86 µM | – | fold less potent than 13 g ([1]; AChE potency): 8 fold |
| O=c1ccc2c([nH]1)CCCC2NCCCCCCCNC1CCCc2[nH]c(=O)ccc21 (racemic) [rac-lmeso-13d, rac-/meso-N′,N′-Di-5′-(5′,6′,7′,8′-Tetrahydroquinolin-2-onyl)-1,7-diaminoheptane, bis-Hydrochloride Salt] | 28.0 | 1.24 µM | 34.6 µM | – |
| O=c1ccc2c([nH]1)CCC[C@@H]2NCCCCCCCCCCCCN[C@H]1CCCc2[nH]c(=O)ccc21 [(S,S)-(−)-13i, (S,S)-(−)-N,N′-di-5′-(5′,6′,7′,8′-Tetrahydroquinolin-2-onyl)-1,12-diaminododecane, bis-Hydrochloride Salt] | – | – | – | IC50 [2, 4]: 9.6 µM |
| O=c1ccc2c([nH]1)CCC[C@H]2NCCCCCCCCCCCCN[C@@H]1CCCc2[nH]c(=O)ccc21 [(R,R)-(+)-13i] | – | – | – | IC50 [2, 4]: 297 µM |
| CC1(C)Cc2[nH]c(=O)ccc2C(NCCCCCCCCCCCCNC2CC(C)(C)Cc3[nH]c(=O)ccc32)C1 (racemic) [rac-lmeso-14i] | 17 | 3.62 µM | – | – |
| O=c1ccc2c([nH]1)CCC[C@@H]2NCCCCCCCCCCCN[C@H]1CCCc2[nH]c(=O)ccc21 [(S,S)-(−)-13h] | – | – | – | Selectivity for AChE ([1]; Table III): 13.8; IC50 [1, 3]: 0.084 ± 0.005 µM; IC50 [2, 4]: 1.16 µM |
| COc1ccc2c(n1)CCCC2NCCCCCCCCCCCCNC1CCCc2nc(OC)ccc21 (racemic) [rac-lmeso-17i] | 15.8 | 5 µM | 78.9 µM | fold increase in AChE IC50 relative to rac-/meso-13i [1]: 31 fold |
| O=c1ccc2c([nH]1)CCC[C@@H]2NCCCCCCCCCCCCCCN[C@H]1CCCc2[nH]c(=O)ccc21 [(S,S)-(−)-13k] | – | – | – | Selectivity for AChE ([1]; Table III): 248; IC50 [1, 3]: 0.24 ± 0.05 µM; IC50 [2, 4]: 59.5 µM |
